One series concerns FR-expressing KB cells. Description: Cell binding and internalization in KB cells. Format: cell-based, human. The settings on record: for uptake blocked by co-incubation with folic acid: 0.7 mM folic acid. As for the experimental part: Cellular assays were performed using the human cervical cancer KB cell line, which was cultured in folate-deficient cell media prior to use. The ^55Co-labeled folates were incubated with FR-expressing KB cells to determine total uptake (i.e., all cell-associated activity, both surface-bound and internalized) and the internalized fraction. To determine whether uptake was receptor-mediated, some cells were co-incubated with folic acid, which binds to FRs with high affinity to act as a blocking agent. […] The uptake profiles for both of the tested radiofolates were similar to each other and more similar to the previously reported [^68Ga]Ga-rf42 complex, in contrast to [^64Cu]Cu-rf42 [14]. In the case of [^55Co]Co-cm10, 26% of the total uptake was internalized with 95% of the uptake blocked by co-incubation of the cells with 0.7 mM of folic acid (Figure 3).
The human cervical cancer cell line KB (CCL-17) was purchased from ATCC (Manassas, VA, USA) and cells were cultured in Gibco folate-deficient RPMI 1640 growth medium (FFRPMI, Thermo Scientific, Waltham, MA, USA) supplemented with 10% fetal bovine serum, and Gibco 1% Antibiotic-Antimycotic. Cells were cultured following standard procedures and were incubated at 37 °C in a 5% CO2 environment and harvested using Gibco 0.25% trypsin-EDTA.
Cell internalization was performed similarly to a previously published procedure. KB cells were harvested, washed with supplemented FFRPMI, and resuspended in supplemented FFRPMI at a final concentration of 1 × 10^5 cells/mL for seeding. In […], 1 mL of the cell mixture was added to each well, and the plates were incubated overnight to allow for adhesion and growth. The following morning, the radiofolates were prepared at molar activities of 331.7 MBq/μmol (9.0 mCi/µmol) [^55Co]Co-cm10 and 299.5 MBq/μmol (8.1 mCi/μmol) in 50 μL final volume and then diluted in supplement free FFRPMI (either with or without 1 mM folic acid) to a final volume of 1 mL/well. The plates were collected, the supernatants discarded, and 1 mL of the dilute radiofolates in media was added to each well (n = 4 for each condition). […] The stripping buffer and lysed cell fractions were collected separately and counted using an automatic gamma counter.
The lysed cell fractions in NaOH were saved, and the total protein concentration for each sample was determined using a Pierce Micro BCA Protein Assay kit (Thermo Scientific, Waltham, MA, USA). The samples were vortexed vigorously prior to assaying, and were analyzed without further dilution. The results were used to normalize the measured radioactivity to the average protein content in each well.

A short description of series [1]: In vitro stability in mouse serum (HPLC). Format: in vitro ADME. The conditions noted are these: 37 °C, normalized to 0 h, n = 3. As for the experimental part:
Stability of the ^55Co-labeled folates was monitored over a period of 24 h in phosphate buffered saline (PBS) and mouse serum, to monitor the stability of a dose prior to injection (for potential shipment to a PET center) and match the longest biodistribution time point, respectively. The percentage of the intact complex was monitored at 1 h, 4 h, and 24 h via radio-TLC (PBS) or HPLC (mouse serum). […] In PBS, both radioconjugates retained 93% or greater stability at 24 h. […] As a control, one group of replicate serum tubes contained only [^55Co]CoCl2. […] Therefore, the peak corresponding to free [^55Co]CoCl2 (tR = 2.2 min) was used to determine the overall serum stability of the ^55Co-labeled chelates, which was approximately 95% for each compound at 24 h.
The ^55Co-labeled folate derivatives were diluted 10-fold in 10 mM PBS (pH = 7.4) or whole mouse serum (EMD Millipore, Burlington, MA) in 1.5 mL centrifuge tubes to final volumes of 100 μL. The tubes were incubated at 37 °C with vortexing at 900 rpm using an Eppendorf ThermoMixer C (Eppendorf, Hamburg, Germany) equipped with a 1.5 mL heating block. In the case of PBS stability, three replicate tubes were prepared with average final activity concentrations of 37 kBq (1 μCi) [^55Co]Co-cm10/μL or 37 kBq (1 μCi) [^55Co]Co-rf42/μL, and the final concentrations of precursor were 0.07 mM of cm10 or rf42. The percent of the intact complex was determined by analyzing 1 μL aliquots of each solution by radio-TLC at 1 h, 4 h and 24 h. For mouse serum stability, three replicate tubes were prepared for each time point for each complex. The final average activity concentrations were 11.1 kBq (0.3 μCi) [^55Co]Co-cm10/μL and 7.4 kBq (0.2 μCi) [^55Co]Co-rf42/μL and 0.02 mM final folate concentration. A control sample was prepared for each time point that contained an average of 10.4 kBq/μL of [^55Co]CoCl2. At each time point, 300 μL of ACN was added to each tube to precipitate serum proteins. The tubes were centrifuged at 4500 rpm for 5 min using a benchtop microcentrifuge (Eppendorf, Hamburg, Germany) and the supernatants collected. The pellets were washed once more, and the supernatants were collected and combined with the first ACN wash. The activities in the pellets and supernatants were determined using a 2480 Wizard2 Automatic Gamma Counter (Perkin Elmer, Waltham, MA, USA) to determine the amount of activity associated with the protein pellet. To determine the percentage of intact complex, the supernatant was diluted 2-fold with water, and 100 μL of this mixture was injected into the HPLC.

Details of series [2]: method as in PMID 18246556, doi:10.1016/S0277-5387(99)00369-1, doi:10.1351/pac200577081445. The settings on record: remaining carboxylic acid O of DOTA in the Co(II) complex; cited from earlier work.

This is an account of results in PMC6958329, “New ^55Co-labeled Albumin-Binding Folate Derivatives as Potential PET Agents for Folate Receptor Imaging” (Pharmaceuticals, 2019).

Structures are written as SMILES. Values joined by “and” are separate entries in the source; they are usually repeats but may differ in a detail not shown here. Equal entries are not always repeated.

Usually pKa stands for the pH at which an ionisable group is half protonated.

On to `Nc1nc2ncc(CNc3ccc(C(=O)N[C@@H](CCC(=O)NC(CCCCNC(=O)CCC(C(=O)O)N4CCN(CC(=O)O)CCN(CC(=O)O)CC4)C(=O)NC(CCCCNC(=O)CCCc4ccc(I)cc4)C(=O)O)C(=O)O)cc3)nc2c(=O)[nH]1.[55Co]` (some centres unmarked) [[^55Co]Co-rf42], for which the “fraction of total uptake internalized” value in the series with FR-expressing KB cells was 24%. Further, the “uptake blocked by co-incubation with folic acid” value in the series with FR-expressing KB cells was 97%. Moreover, the “percent intact complex, mouse serum” value in series [1] (1 h) is 97.5 ± 0.5%; in series [1] (4 h), 97.2 ± 0.4%; in series [1] (24 h), 94% and 94.6 ± 0.6%.

As for `Nc1nc2ncc(CNc3ccc(C(=O)N[C@@H](CCC(=O)NC(CCCCNC(=O)CN4CCN(CC(=O)O)CCN(CC(=O)O)CCN(CC(=O)O)CC4)C(=O)NC(CCCCNC(=O)CCCc4ccc(I)cc4)C(=O)O)C(=O)O)cc3)nc2c(=O)[nH]1.[55Co]` (some centres unmarked) [[^55Co]Co-cm10], the pKa in series [2] is on record as 4.04. Besides, the “fraction of total uptake internalized” value with FR-expressing KB cells is 26%. The “uptake blocked by co-incubation with folic acid” value in the series with FR-expressing KB cells is on record as 95%. Besides, the “percent intact complex, mouse serum” value was 98 ± 1% in series [1] (1 h); 97.8 ± 0.6% in series [1] (4 h); 94% and 95 ± 1% in series [1] (24 h).
